Test results taken from patent publication US20260283941A1, “PHARMACEUTICAL COMPOSITION CONTAINING PYRROLE GASTRIC ACID SECRETION INHIBITOR AND PREPARATION METHOD THEREFOR” (JIANGSU CAREPHAR PHARMACEUTICAL CO., LTD., priority 2022, published 2026).

Assay: Stability investigation: properties (appearance) of the injection solutions
Format: physicochemical
Conditions: pH of the injectable composition 2.0
Method: The compound represented by formula II and the stabilizer were weighed and dissolved in 90% of a prescribed amount of water for injection. The pH of the solution was adjusted with hydrochloric acid, and then water for injection was added to the full amount. The solution was filled up to 2 mL, and was flushed with nitrogen before and after filling and sealing. The solution was sterilized at 121° C. for 15 minutes to obtain the composition. […] The changes of impurities were detected by high-performance liquid chromatography (HPLC). The analytical method used to detect the impurity content was as follows:
The compound represented by formula II and disodium edetate or calcium disodium edetate were weighed and dissolved in 90% of a prescribed amount of water for injection. The pH of the solution was adjusted with hydrochloric acid, and then water for injection was added to the full amount. The solution was filled in a 2 mL ampoule, and was flushed with nitrogen before and after filling and sealing. The sample was sterilized at 121° C. for 15 minutes to obtain the composition. The compositions were placed under conditions including a high temperature of 60° C. and illumination at 5000 Lx for stability investigation, to determine the properties of the injection solutions and the changes of impurities.

## CNCc1cc(-c2ccccc2F)n(S(=O)(=O)c2cccc(OCCCOC)c2)c1.Cl [compound represented by formula II]
  Solubility (in words): reduced solubility
